# Data taken from patent US5298494A, “Monosaccharides having anti-proliferation and anti-inflammatory activity, compositions and uses thereof” (Greenwich Pharmaceuticals Incorporated, priority 1993, dated 1994).
# Read-outs that look alike come from different tables or passages of the source.
# Tests used:
# [1] = tested on: T cell proliferation in mouse spleen cell mixed lymphocyte cultures; experiment: Mixed Lymphocyte Reaction (MLR) assay; type: cell-based, mouse (Balb/c responder, C57B1/6 stimulator); settings: for inhibition at 3 µM / inhibition at 10 µM / inhibition at 30 µM / inhibition at 100 µM / inhibition at 300 µM: Mus musculus, Lymphocyte, read-out: % Change From Control, MLR
# Source text: The pharmacologic assays performed to determine the immunomodulatory effects of the experimental compounds in vitro include the Mixed Lymphocyte Reaction (MLR) and the ConA blastogenesis assay. These assays were used to determine the inhibitory effects of the compounds of the invention on T lymphocyte activation and proliferation. Since inflammation at the cellular level is characterized by T lymphocyte recruitment, activation and proliferation, these assays are appropriate to use as screens for novel compounds having therapeutic potential in the treatment of disorders in which inflammatory mechanisms are involved.
# The MLR is a classical assay used to measure T cell function by studying the proliferative response of T cells which are activated in vitro by genetically disparate stimulator cells. This is accomplished by co-culturing spleen cells from two different strains of mice. Splenic T cell proliferation occurs as a result of cellular activation signals generated by the ongoing cellular interactions.
# Balb/c mice were euthanised by cervical dislocation and their spleens removed. Single cell suspensions of the spleens were prepared in culture medium (hepes buffered RPMI-1640 supplemented with 10% fetal calf serum, 2mM glutamine, 500 units penicillin/ streptomycin, and 4×10^-5 M 2-mercaptoethanol) using a Teflon pestle. The cells were centrifuged at 1500 rpm and the pellets resuspended in ACT (0.15M tris, 0.14M ammonium chloride, pH 7.2) in order to lyse the red blood cells. After a 5 minute incubation in a 37 C. waterbath, the cells were resuspended in culture medium and counted. C57B1/6 spleen cells which were used as stimulator cells, were also prepared by this method. The stimulator cells were treated with 100 ug/ml of mitomycin c for 1 hour at 37 C. (to inhibit stimulatory cell proliferation) and were then washed 5 times in culture medium. The proliferative responses were measured by culturing 2.5×10^5 responder cells with 5×10^5 stimulatory cells in 96 well microtiter plates in the presence or absence of various doses of test compounds or vehicle (DMSO). Syngeneic control cultures using mitomycin c treated Balb/c spleen cells as stimulator cells were also run. All cultures were run in triplicate.
# Solutions of compounds of the present invention in DMSO were prepared at a stock concentration of 120 Mm. Dilutions were made in culture medium to the following concentrations: 3, 10, 30, 100, and 300 uM. The vehicle (DMSO) was used as a negative control.
# After incubation of for 5 days at 37 C. with 5% CO2, the amount of cell proliferation was measured by adding 20 ul of MTT (3-[4,5-dimethylthiazol-2-yl]-2,5diphenyl-tetrazolium bromide) (10 mg/ml in phosphate buffered saline) to each well. Plates were incubated for 4 hours at 37 C., after which 180 ul of 10% sodium dodecyl sulphate in phosphate buffered saline was added. After an overnight incubation, the optical density (OD) of each well was read on a Molecular Devices microplate reader at 570-650 nm. The results were determined by calculating the difference between the means of the allogeneic cultures and the means of the syngenic cultures for each test article concentration. Differences of the test article groups were compared to the control group and the percent change from the control was determined.
# [2] = tested on: T lymphocytes (normal mouse spleen cells) stimulated with ConA; experiment: Mouse Spleen Cell ConA Blastogenesis Assay; type: cell-based, mouse (C57Bl/6); settings: Mus musculus, T-lymphocyte; for inhibition at 0.1 µg/mL: compound 0.1 ug/ml; for inhibition at 1 µg/mL: compound 1 ug/ml; for inhibition at 2.5 µg/mL: compound 2.5 ug/ml; for inhibition at 10 µg/mL: compound 10 ug/ml; for inhibition at 25 µg/mL: compound 25 ug/ml
# [3] = ConA 1 ug/ml, 0.01 ug/ml, read-out: % Change from Control (Table II)
# [4] = ConA 1 ug/ml, compound 0.01 ug/ml, read-out: % change from control, ConA blastogenic response
# [5] = ConA 1 ug/ml, read-out: % change from control, ConA blastogenic response
# [6] = ConA 1 ug/ml, compound 100 ug/ml, read-out: % change from control, ConA blastogenic response
# [7] = ConA 4 ug/ml, 0.01 ug/ml, read-out: % Change from Control (Table II)
# [8] = ConA 4 ug/ml, compound 0.01 ug/ml, read-out: % change from control, ConA blastogenic response
# [9] = ConA 4 ug/ml, read-out: % change from control, ConA blastogenic response
# [10] = ConA 4 ug/ml, compound 100 ug/ml, read-out: % change from control, ConA blastogenic response
Compound,Mean O.D. Allogenic ([1]; 3 um),Mean O.D. Syngeneic ([1]; 3 um),Mean O.D. Allogenic ([1]; 10 um),Mean O.D. Syngeneic ([1]; 10 um),Mean O.D. Allogenic ([1]; 30 um),Mean O.D. Syngeneic ([1]; 30 um),Mean O.D. Allogenic ([1]; 100 um),Mean O.D. Syngeneic ([1]; 100 um),Mean O.D. Allogenic ([1]; 300 um),Mean O.D. Syngeneic ([1]; 300 um),"inhibition at 1 µg/mL [2, 5]","inhibition at 2.5 µg/mL [2, 5]","inhibition at 10 µg/mL [2, 5]","inhibition at 25 µg/mL [2, 5]","inhibition at 100 µg/mL [2, 6]","inhibition at 1 µg/mL [2, 9]","inhibition at 2.5 µg/mL [2, 9]","inhibition at 10 µg/mL [2, 9]","inhibition at 25 µg/mL [2, 9]","inhibition at 100 µg/mL [2, 10]",also measured
"CCCCCCCO[C@@H]1[C@@H](CO)O[C@@]2(OC)COC(C)(C)O[C@@H]12 [Ic, methyl 1,3-O-isopropylidene-4-O-heptyl-α-D-fructofuranoside]",0.207 O.D.,0.096 O.D.,0.198 O.D.,0.106 O.D.,0.200 O.D.,0.148 O.D.,0.163 O.D.,0.077 O.D.,0.034 O.D.,0.159 O.D.,19%,21%,79%,99%,100%,35%,51%,91%,99%,100%,"inhibition at 3 µM ([1]; 3 um): -34%; inhibition at 10 µM ([1]; 10 um): -11%; inhibition at 30 µM ([1]; 30 um): 37%; inhibition at 100 µM ([1]; 100 um): -4%; inhibition at 300 µM ([1]; 300 um): 251%; inhibition at 0.01 µg/mL [2, 3]: -11%; inhibition at 0.01 µg/mL [2, 4]: -8%; inhibition at 0.1 µg/mL [2, 5]: 3%; inhibition at 0.01 µg/mL [2, 7]: 8%; inhibition at 0.01 µg/mL [2, 8]: -14%; inhibition at 0.1 µg/mL [2, 9]: 8%"
"CCCCCCCCCCCCOC1C(C(O)CO)OC2OC(C)(C)OC21 [IIa, 1,2-O-Isopropylidene-3-O-n-dodecyl-α-D-glucofuranose]",–,–,–,–,–,–,–,–,–,–,21%,60%,95%,99%,100%,33%,50%,83%,94%,100%,"% Change From Control, MLR ([1]; Table X, 3 ugm): -19%; % Change From Control, MLR ([1]; Table X, 10 ugm): -40%; Mean O.D. Allogenic ([1]; Table X, 10 ugm): 0.185 O.D.; Mean O.D. Syngeneic ([1]; Table X, 10 ugm): 0.135 O.D.; % Change From Control, MLR ([1]; Table X, 30 ugm): 23%; Mean O.D. Allogenic ([1]; Table X, 30 ugm): 0.158 O.D.; Mean O.D. Syngeneic ([1]; Table X, 30 ugm): 0.056 O.D.; % Change From Control, MLR ([1]; Table X, 100 ugm): -86%; % Change From Control, MLR ([1]; Table X, 300 ugm): -96%; strong non-dose dependent inhibition in MLR ([1]; several concentrations): greater than -50 % of control; inhibition at 100 µg/mL ([2]; 100 ug/ml, read-out: strong inhibition of ConA stimulated T lymphocyte proliferation): < 50%"
"CCCCC/C=C\COC[C@H]1O[C@@]2(OC)COC(C)(C)O[C@H]2[C@@H]1OC/C=C\CCCCC [If, methyl 1,3-O-isopropylidene-4,6-di-O-(cis,2-octenyl)-α-D-fructofuranoside]",0.195 O.D.,0.140 O.D.,0.199 O.D.,0.134 O.D.,0.199 O.D.,0.164 O.D.,0.102 O.D.,0.025 O.D.,0.032 O.D.,0.022 O.D.,14%,25%,74%,85%,4%,26%,42%,79%,87%,88%,"inhibition at 3 µM ([1]; 3 um): 34%; inhibition at 10 µM ([1]; 10 um): 22%; inhibition at 30 µM ([1]; 30 um): 58%; inhibition at 100 µM ([1]; 100 um): 7%; inhibition at 300 µM ([1]; 300 um): 88%; inhibition at 0.01 µg/mL [2, 3]: 8%; inhibition at 0.01 µg/mL [2, 4]: -6%; inhibition at 0.1 µg/mL [2, 5]: 2%; inhibition at 0.01 µg/mL [2, 7]: 4%; inhibition at 0.01 µg/mL [2, 8]: 0%; inhibition at 0.1 µg/mL [2, 9]: 23%"
